Reference: patent US20210321649A1, “METHOD FOR DETECTING MISHANDLING AND MISUSE OF FOOD PRODUCTS” (SECURITY MATTERS LTD., priority 2016, published 2021)

Test: Solubility of marking compounds in ethanol and water (Table 1)
Settings: for Solubility in Ethanol: solvent ethanol; for Solubility in water: solvent water

| Solubility in Ethanol | Solubility in water | Substance |
| --- | --- | --- |
| Soluble | Insoluble | Copper complexes chlorophylls [Copper complexes chlorophylls (E141)] |
| Soluble | Soluble | Vitamin B12 |
